The source of these data is ChEMBL document CHEMBL3351444, “Poliothrysoside and its derivatives as novel insulin sensitizers potentially driving AMPK activation and inhibiting adipogenesis” (Eur J Med Chem, 2014).

Activity calls are given as the source filed them. The rule behind the calls is not given here.

Usually inhibition stands for the relative decrease from the control value, in per cent.

For data set [1], the system named is 3T3-L1. Put plainly: Induction of [3H] 2-deoxyglucose uptake in chronic insulin resistant mouse 3T3L1 cells assessed as maximum uptake at 10 uM by liquid scintillation counting. It counts as functional.
The test system of data set [2] is 3T3-L1. Put plainly: Induction of AKT phosphorylation in mouse 3T3L1 cells at 10 uM by Western blot analysis. The class given is cell-based.
For data set [3], the system named is 3T3-L1. Put plainly: Inhibition of adipogenesis in mouse 3T3L1 cells assessed as reduction in lipid droplet formation by using Oil-Red O by microscopy. It counts as functional, cell-based.
The test system of data set [4] is 3T3-L1. Put plainly: Inhibition of adipogenesis in mouse 3T3L1 cells assessed as reduction in lipid droplet formation at 10 uM by using Oil-Red O by microscopy. The class given is functional, cell-based.
Data set [5] has as its system 3T3-L1. Put plainly: Inhibition of adipogenesis in mouse 3T3L1 cells assessed as reduction in lipid droplet formation at 50 uM by using Oil-Red O by microscopy. The class given is functional.
Data set [6] deals with 3T3-L1. Put plainly: Induction of [3H] 2-deoxyglucose uptake in chronic insulin resistant mouse 3T3L1 cells at 10 uM after 24 hrs by liquid scintillation counting in presence of AMPK inhibitor compound C. It counts as functional, cell-based.
Data set [7] in a line: Toxicity in mouse 3T3L1 cells. The class given is cell-based. Particulars: 3t3-l1.
Data set [8] concerns 3T3-L1. Put plainly: Induction of AMPK phosphorylation in mouse 3T3L1 cells at 10 uM by Western blot analysis. The class given is cell-based. In general terms: A western blot detects proteins with antibodies after separation by electrophoresis.
In data set [9] the test system is 3T3-L1. Put plainly: Induction of [3H] 2-deoxyglucose uptake in chronic insulin resistant mouse 3T3L1 cells assessed as maximum uptake by liquid scintillation counting. The class given is functional, cell-based.
The test system of data set [10] is 3T3-L1. Put plainly: Inhibition of adipogenesis in mouse 3T3L1 cells assessed as reduction in lipid droplet formation at 20 uM by using Oil-Red O by microscopy. It counts as functional.
The subject of data set [11] is 3T3-L1. Put plainly: Induction of AMPK phosphorylation in mouse 3T3L1 cells at 1 mM by Western blot analysis. It counts as cell-based.

`O=C(OC[C@H]1O[C@@H](Oc2ccc(O)cc2CO)[C@H](O)[C@@H](O)[C@@H]1O)c1ccccc1`: the outcome with 3T3-L1 [1] was Active.
Regarding `O=C(COc1ccc(O[C@@H]2O[C@H](COC(=O)c3ccccc3)[C@@H](O)[C@H](O)[C@H]2O)c(CO)c1)c1ccccc1`, the outcome in the data set with 3T3-L1 [1] was Active.
On to `O=C(OC[C@H]1O[C@@H](Oc2ccc(OCc3ccc([N+](=O)[O-])cc3)cc2CO)[C@H](O)[C@@H](O)[C@@H]1O)c1ccccc1`, for which the outcome with 3T3-L1 [1] was Active.
Still for that read-out and setting: with `O=C(COc1ccc(O[C@@H]2O[C@H](COC(=O)c3ccccc3)[C@@H](O)[C@H](O)[C@H]2O)c(CO)c1)c1ccc(Cl)cc1` the entry was “Active”.
As to `CC(=O)OCc1cc(OC(C)=O)ccc1O[C@@H]1O[C@H](COC(=O)c2ccccc2)[C@@H](OC(C)=O)[C@H](OC(C)=O)[C@H]1OC(C)=O`, the outcome with 3T3-L1 [2] and with 3T3-L1 [6] was inactive. For the same compound, the inhibition entry in the data set on 3T3-L1 [3] was “Dose-dependent effect”. Moreover, the inhibition result in the data set with 3T3-L1 [4] was “inactive”. Also, in the data set on 3T3-L1 [5], the inhibition at 50 µM amounted to 64%. Moreover, the values for the Activity (in the data set with 3T3-L1 [1]; in data set [7]; with 3T3-L1 [9]) were 17.35 pmol/mg/min, “Non-toxic” and “Dose-dependent effect”, respectively. Besides, the outcome with 3T3-L1 [8] was Active. Besides, the inhibition at 20 µM with 3T3-L1 [10] stood at 20%.
Consider `CCOc1ccc(O[C@@H]2O[C@H](COC(=O)c3ccccc3)[C@@H](O)[C@H](O)[C@H]2O)c(CO)c1`, for which the outcome in the data set on 3T3-L1 [1] was Active.
For `O=C(OC[C@H]1O[C@@H](Oc2ccc(OCc3ccccc3)cc2CO)[C@H](O)[C@@H](O)[C@@H]1O)c1ccccc1`, the result in the data set with 3T3-L1 [1] was Active.
Consider `CN(C)C(=N)NC(=N)N`, for which the outcome in the data set on 3T3-L1 [11] was Active.
